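Following 48 hours of exposure in 96-well plates, responses at five concentrations were used to interpolate endpoints linearly. GI50 marks 50% less growth. TGI marks complete inhibition of growth.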
Key:
Experiment in all cases: growth of human tumour cells (NCI), 48 h
[1] = tested on: CCRF-CEM leukemia
[2] = tested on: HCC-2998 colon
[3] = tested on: HL-60(TB) leukemia
[4] = tested on: HOP-92 NSCLC
[5] = tested on: NCI-H226 lung
[6] = tested on: RXF 393 renal
[7] = tested on: SK-MEL-28 melanoma
[8] = tested on: SK-MEL-5 melanoma
[9] = tested on: UACC-62 melanoma
[10] = tested on: SR leukemia

Structure (SMILES)	TGI [1]	TGI [2]	TGI [3]	TGI [4]	TGI [5]	TGI [6]	TGI [7]	TGI [8]	TGI [9]	GI50 [1]	GI50 [2]	GI50 [3]	GI50 [5]	GI50 [6]	GI50 [7]	GI50 [8]	GI50 [10]	TGI [10]	GI50 [9]	GI50 [4]
CCCCCCCCCCCNC=O	> 100 µM	86.1 µM	39.7 µM	> 100 µM	> 100 µM	> 100 µM	> 100 µM	92 µM	> 100 µM	–	–	–	–	–	–	–	–	–	–	–
O=c1cc(-c2ccccc2)[nH]c2c1CCCC2	> 100 µM	31.9 µM	> 100 µM	–	65.6 µM	5.53 µM	> 100 µM	45.4 µM	> 100 µM	3.4 µM	2.5 µM	1.62 µM	3.08 µM	1.8 µM	> 100 µM	0.883 µM	0.835 µM	> 100 µM	5.91 µM	–
CC1CCCC(C#N)(NOC2=NCCN2)C1 (stereo not given)	> 100 µM	–	93 µM	75.1 µM	37 µM	> 100 µM	> 100 µM	34.2 µM	94.8 µM	53.8 µM	–	16.8 µM	17.2 µM	65.1 µM	> 100 µM	14.9 µM	7.87 µM	> 100 µM	26.4 µM	36.5 µM
O=c1c2ccccc2oc2ccccc12 (tested in a mixture with another compound)	> 100 µM	89.9 µM	> 100 µM	–	–	–	–	7.61 µM	> 100 µM	–	–	–	–	–	–	–	–	> 100 µM	–	–
N#CC1=C(N)NC(N2CCOCC2)=NC12Nc1ccccc1O2 (stereo not given)	> 100 µM	–	> 100 µM	> 100 µM	> 100 µM	> 100 µM	> 100 µM	> 100 µM	> 100 µM	44 µM	–	48.3 µM	98.7 µM	61.5 µM	> 100 µM	22.7 µM	27.7 µM	> 100 µM	53.9 µM	> 100 µM
CC(=O)c1c[nH]c2ccc(-c3ccnc(Nc4ccc(NC(=O)C5CCCC5)c(CN5CCOCC5)c4)n3)cc12	–	0.6 µM	0.0727 µM	0.365 µM	0.284 µM	0.036 µM	0.27 µM	0.0685 µM	0.0481 µM	0.0294 µM	0.0444 µM	0.0253 µM	0.0298 µM	0.0114 µM	0.0404 µM	0.0246 µM	–	–	0.0205 µM	0.0284 µM
CCOC(=O)c1c(-c2ccccc2)[n+](=O)c2cc(F)c(F)cc2n1[O-]	–	–	3.77 µM	2.73 µM	6.92 µM	4.1 µM	3.34 µM	3.52 µM	–	–	–	0.717 µM	2.73 µM	1.38 µM	1.73 µM	1.53 µM	0.187 µM	> 100 µM	–	1.14 µM
CC12CCC(=O)C(O1)C1C(=O)c3ccc4c(ccc5ccccc54)c3C(=O)C12 (stereo not given)	> 100 µM	–	7.21 µM	32.3 µM	12.7 µM	2.03 µM	> 100 µM	3.3 µM	2.86 µM	3.77 µM	–	1.66 µM	5.78 µM	–	29.1 µM	1.63 µM	–	–	1.46 µM	7.1 µM
Cc1nc(NS(=O)(=O)c2ccc(NCN3C(=O)c4ccccc4C3=O)cc2)oc1C	0.0422 µM	> 100 µM	> 100 µM	–	> 100 µM	> 100 µM	> 100 µM	> 100 µM	> 100 µM	0.0113 µM	> 100 µM	> 100 µM	> 100 µM	> 100 µM	> 100 µM	> 100 µM	> 100 µM	> 100 µM	> 100 µM	–
O=c1cc[nH]cc1-c1c[nH]ccc1=O	> 100 µM	> 100 µM	> 100 µM	> 100 µM	> 100 µM	> 100 µM	> 100 µM	> 100 µM	> 100 µM	–	–	–	–	–	–	–	–	–	–	–
COc1cc(C2c3cc4c(cc3OC(O)C2C)OCO4)cc(OC)c1OC (stereo not given)	–	> 41.8 µM	0.503 µM	7.53 µM	7.33 µM	> 100 µM	> 100 µM	9.98 µM	> 100 µM	–	–	–	–	–	–	–	–	–	–	–
COC(=O)C(=O)C(C(=O)C(=O)Nc1ccccc1[N+](=O)[O-])c1nc2ccc([N+](=O)[O-])cc2[nH]c1=O (stereo not given)	> 100 µM	–	> 100 µM	> 100 µM	> 100 µM	> 100 µM	> 100 µM	> 100 µM	> 100 µM	–	–	–	–	–	–	–	–	> 100 µM	–	–
CC(C)=Cc1cc(CCC/C(C)=C/Cc2c(O)cc(C)c(C(=O)O)c2O)co1	> 100 µM	> 100 µM	–	> 100 µM	–	–	> 100 µM	> 100 µM	> 100 µM	–	–	–	–	–	–	–	–	–	–	–
CC(C)(C)c1ccc(C2CC(=O)C3=C(C2)Nc2ccccc2N(C(=O)c2ccccc2Cl)C3c2ccc(F)cc2)cc1 (stereo not given)	> 100 µM	> 100 µM	–	> 100 µM	> 100 µM	> 100 µM	> 100 µM	> 100 µM	> 100 µM	> 100 µM	> 100 µM	–	> 100 µM	> 100 µM	> 100 µM	> 100 µM	–	–	> 100 µM	> 100 µM
CN1CCC(c2c(O)cc(O)c3c(=O)cc(-c4ccccc4Cl)oc23)C(O)C1 (stereo not given)	19.3 µM	0.454 µM	–	0.337 µM	0.305 µM	0.0312 µM	0.6 µM	0.107 µM	0.197 µM	–	–	–	–	–	–	–	–	–	0.0506 µM	–
Brc1cc(C2OCCCO2)ccc1OCc1ccccc1	> 100 µM	> 100 µM	> 100 µM	> 100 µM	> 100 µM	> 100 µM	> 100 µM	71.4 µM	> 100 µM	–	–	–	–	–	–	–	–	–	–	–
COc1cc(OC)c2c(=O)cc(-c3ccccc3OCc3ccccc3)oc2c1OC	67.7 µM	7.54 µM	> 100 µM	18.6 µM	44 µM	> 100 µM	46.5 µM	4.33 µM	17.7 µM	3.18 µM	2.39 µM	> 100 µM	6.25 µM	> 100 µM	12.7 µM	1.84 µM	–	–	4.14 µM	2.63 µM
CCOC(=O)[C@@]12C(C)=CC(=O)O[C@]1(C)C1C(=O)NC(=O)C12 (stereo not given in full)	> 100 µM	> 100 µM	> 100 µM	> 100 µM	> 100 µM	> 100 µM	> 100 µM	> 100 µM	> 100 µM	–	–	–	–	–	–	–	–	–	–	–

Structure (SMILES)	TGI [1]	TGI [2]	TGI [3]	TGI [4]	TGI [5]	TGI [6]	TGI [7]	TGI [8]	TGI [9]	GI50 [1]	GI50 [2]	GI50 [3]	GI50 [5]	GI50 [6]	GI50 [7]	GI50 [8]	GI50 [10]	TGI [10]	GI50 [9]	GI50 [4]
CCC[CH2][Sn]([CH2]CCC)([CH2]CCC)/[C](=C/[Si](C)(C)c1ccccc1)c1ccc2c(c1)OCO2	73.2 µM	–	35.4 µM	29.4 µM	42.9 µM	41.2 µM	33.4 µM	30.1 µM	–	12 µM	–	15.8 µM	19.9 µM	22.1 µM	16.2 µM	15.8 µM	8.61 µM	63.9 µM	–	11.4 µM
CC(C)[P+](c1ccccc1)(c1ccccc1)c1ccccc1	> 100 µM	> 100 µM	7.5 µM	–	> 100 µM	> 100 µM	> 100 µM	7.9 µM	> 100 µM	4.2 µM	3.36 µM	2.24 µM	5.69 µM	27.4 µM	21.2 µM	2.22 µM	3.05 µM	> 100 µM	4.2 µM	–
NC1=NC(SCc2ccccc2CCl)c2ncn(Cc3ccccc3CCl)c2N1 (stereo not given)	5.68 µM	–	–	2.39 µM	4.7 µM	2.85 µM	6.97 µM	3.25 µM	10.4 µM	1.79 µM	–	–	1.9 µM	1.48 µM	2.28 µM	1.71 µM	1.56 µM	6.46 µM	2.54 µM	1.1 µM
Cc1cc(Cl)cc2c1NC(=O)C2(O)CC(=O)c1ccc(Br)cc1 (stereo not given)	42.7 µM	> 100 µM	48.2 µM	> 100 µM	> 100 µM	56.9 µM	97.9 µM	57.8 µM	56.2 µM	–	–	–	–	–	–	–	–	–	–	–
CCCC(O)c1cn(-c2cccc(S(=O)(=O)O)c2)nn1 (stereo not given)	> 100 µM	> 100 µM	> 100 µM	> 100 µM	> 100 µM	> 100 µM	> 100 µM	> 100 µM	> 100 µM	–	–	–	–	–	–	–	–	–	–	–
COc1ccc(NC(=O)CC(=O)N/N=C(\C)c2cc3ccccc3oc2=O)cc1	> 100 µM	–	> 100 µM	–	> 100 µM	> 100 µM	> 100 µM	> 100 µM	> 100 µM	–	–	–	–	–	–	–	–	–	–	–
COc1ccc(C2NN=C3c4ccccc4CCC32)cc1 (stereo not given)	> 100 µM	> 100 µM	5.27 µM	> 100 µM	> 100 µM	> 100 µM	76.1 µM	17.1 µM	> 100 µM	4.64 µM	12.4 µM	1.92 µM	> 100 µM	23.1 µM	8.26 µM	3.62 µM	–	–	8.34 µM	19.4 µM
C=C(C(=O)OC)[C@@H]1CC2OC1C(=O)C(C)CCC/C(C)=C/CC[C@@]2(C)O (stereo not given in full)	36.1 µM	–	–	95.2 µM	–	36.4 µM	77.3 µM	> 100 µM	74.9 µM	11 µM	–	–	–	18 µM	25.5 µM	37 µM	5.1 µM	25.1 µM	26.1 µM	23.8 µM
N#C/C(=C/N1CCN(C(=O)c2ccco2)C1=S)C(=O)Nc1ccc(Cl)cc1	> 50 µM	–	28.7 µM	> 50 µM	–	44.9 µM	> 50 µM	24.7 µM	> 50 µM	22.5 µM	–	10.5 µM	–	13.1 µM	18.7 µM	11.2 µM	1.56 µM	21.3 µM	16.9 µM	21.5 µM
COc1ccc(-c2cc3ccccc3[nH]c2=O)cc1OC	> 100 µM	> 100 µM	> 100 µM	–	> 100 µM	> 100 µM	> 100 µM	–	> 100 µM	–	–	–	–	–	–	–	–	> 100 µM	–	–
CC1=NN(c2ccccc2)C(=O)C12[C@H](c1ccccc1)C2(C#N)C#N (stereo not given in full)	2.78 µM	34.1 µM	7.81 µM	7.81 µM	26.3 µM	14.6 µM	9.6 µM	14.3 µM	12.4 µM	–	–	–	–	–	–	–	–	–	–	–
CC1=C(CO)C(=O)O[C@@H]([C@@H](C)[C@H]2CC[C@H]3[C@@H]4C[C@H]5O[C@]56[C@@H](O)C=CC(=O)[C@]6(C)[C@H]4CC[C@]23C)C1	–	1.56 µM	0.821 µM	1.46 µM	2.86 µM	1.66 µM	2.29 µM	2.79 µM	2.7 µM	–	–	–	–	0.44 µM	–	–	–	–	–	–
CCCCC#Cc1c(I)n(C2OC(CO[Si](C)(C)C(C)(C)C)C3OC(C)(C)OC32)c(=O)n(C(=O)c2ccccc2)c1=O (stereo not given)	33.4 µM	–	28.6 µM	13.5 µM	37.6 µM	23.9 µM	22.5 µM	27.2 µM	32.2 µM	13.4 µM	–	10.1 µM	17.6 µM	11 µM	6.94 µM	14.2 µM	1.69 µM	9.35 µM	17.7 µM	0.885 µM
COC(=O)/C(C#N)=C1\CCC(OC)N1C (stereo not given)	> 100 µM	> 100 µM	> 100 µM	–	> 100 µM	> 100 µM	> 100 µM	> 100 µM	> 100 µM	–	–	–	–	–	–	–	–	–	–	–
OCCCCC#Cc1ccccc1C#Cc1cccnc1	> 100 µM	70.7 µM	75.1 µM	> 100 µM	> 100 µM	28.6 µM	> 100 µM	> 100 µM	> 100 µM	33.9 µM	24.8 µM	26.8 µM	34.1 µM	5.95 µM	23.7 µM	54.8 µM	–	–	35.2 µM	38.2 µM
CCC1CCCCN1CC(C(C)=O)C(c1ccccc1)c1c(O)c2ccccc2oc1=O (stereo not given)	> 100 µM	–	> 100 µM	–	> 100 µM	> 100 µM	> 100 µM	> 100 µM	> 100 µM	–	–	–	–	–	–	–	–	> 100 µM	–	–
O=C1CC(c2cccc(Cl)c2)Oc2ccccc21 (stereo not given)	48.4 µM	35.7 µM	57.1 µM	42.2 µM	41.3 µM	–	42.2 µM	37.6 µM	29.8 µM	–	–	–	–	–	–	–	–	–	–	–

Source: PubChem BioAssay (NCI)
